According to publication PMC8772704, “Quantification of Fosfomycin in Combination with Nine Antibiotics in Human Plasma and Cation-Adjusted Mueller-Hinton II Broth via LCMS” (Antibiotics, 2022):

Tests used:
[1] = Long-term storage stability of antibiotics in combination with fosfomycin spiked in plasma/CAMHB (−30 °C, −80 °C); type: physicochemical; settings: for Mean accuracy (%), Table S15 / Mean accuracy (%), Table S17 / Mean accuracy (%), Table S16 / Mean accuracy (%), Table S18: CAMHB; for Mean accuracy (%), Table S15 / Mean accuracy (%), Table S17 / Mean accuracy (%), Table S16 / Mean accuracy (%), Table S18 / Mean accuracy (%), Table S11 / Mean accuracy (%), Table S13 / Mean accuracy (%), Table S12 / Mean accuracy (%), Table S14: combination with fosfomycin; for Mean accuracy (%), Table S15 / Mean accuracy (%), Table S11: 2 weeks at -30 °C; for Mean accuracy (%), Table S17 / Mean accuracy (%), Table S13: 2 weeks at -80 °C; for Mean accuracy (%), Table S16 / Mean accuracy (%), Table S12: 4 weeks at -30 °C; for Mean accuracy (%), Table S18 / Mean accuracy (%), Table S14: 4 weeks at -80 °C; for Mean accuracy (%), Table S11 / Mean accuracy (%), Table S13 / Mean accuracy (%), Table S12 / Mean accuracy (%), Table S14: plasma
Method: (§1) The stability of fosfomycin in combination with other antibiotics in plasma/CAMHB was evaluated under various operational conditions. Spiked plasma/CAMHB samples were evaluated at 7 h and 15 h in the autosampler at 4 °C. Long-term stability was evaluated up to 4 weeks of antibiotic-spiked plasma/CAMHB samples at LQC, MQC, and HQC concentrations stored at −30 °C and −80 °C.

[2] = Autosampler stability at 4 °C of extracted antibiotic-spiked plasma/CAMHB samples; settings: for Mean accuracy (%), Table S8 / Mean accuracy (%), Table S10: CAMHB extracted samples; for Mean accuracy (%), Table S8 / Mean accuracy (%), Table S7: 7 h autosampler 4 °C; for Mean accuracy (%), Table S10 / Mean accuracy (%), Table S9: 15 h autosampler 4 °C; for Mean accuracy (%), Table S7 / Mean accuracy (%), Table S9: plasma extracted samples
Method: as §1

[3] = Plasma concentrations in four patients on fosfomycin-based combination therapy (pilot clinical feasibility study, LCMS/MS)
Method: For 20 µL of plasma/CAMHB sample, 20 µL of water and 20 µL of stable-isotope as internal standard (IS) were added and vortexed. 180 µL of acetonitrile was added for protein precipitation and subsequently removed by centrifugation (12,700 rpm for 10 min at 25 °C). Finally, 15 µL of the supernatant was diluted with 225 µL formic acid in water (0.1% v/v), and 10 µL was injected for LCMS/MS analysis. For the calibration curve and QCs, 20 µL of the corresponding antibiotic standard working solution was added instead of water.
Samples were analyzed using a Nexera X2 LCMS 8060 system (Shimadzu, Kyoto, Japan). […] Electrospray ionization employing positive and negative ion mode with multiple reaction monitoring was used for analyte quantification (Table S1). Data were acquired and analyzed using Shimadzu LabSolutions (Version 5.97).
The assay method described in this paper has been applied to a pilot clinical feasibility study to evaluate the proportion of patients with sub-optimal β-lactam levels and the need for dose adjustments in infected patients with unpredictable pharmacokinetics. We described a case series of four patients where they received in vitro guided antibiotic combination therapy using a fosfomycin-based combination regimen to treat a carbapenem-resistant Gram-negative bacteria infection. These four patients were recruited into the BLAST-2 study as the combination regimen contains a β-lactam antibiotic. In this case series, two were undergoing intermittent hemodialysis, and two patients had normal renal function. In the two patients on hemodialysis, they were on a dosing regimen of 8 g of fosfomycin on dialysis days (3 g at least 4 h before dialysis session and 5 g after completion of dialysis). The remaining two patients received 8 g of fosfomycin given every 8 h as a prolonged infusion.
Blood samples (2–3 mL from an indwelling catheter) were collected four times over a dosing interval of the β-lactam dosing regimen and centrifuged (10 min at 3000 rpm) (Eppendorf 5425R). The resultant plasma was stored (within 15 min of collection) at −80 °C until assay.

[4] = 32-day stability of stock solutions stored at −80 °C; type: physicochemical; settings: stock solution stored at -80 °C; peak area Day 32 vs Day 1
Method: Stability of stock solutions
All stock solutions of antibiotics and their corresponding stable-isotope variants were measured prior to cold storage at -80 °C and tested at 32 days later.
Stability was determined by comparing the peak area of each drug between its Day 1 and Day 32 measurement. Acceptable criteria for stability was met if the […]

[5] = HQC: nominal mg/L CAZ 150, FEP 200, PIP 250, ATM 300, MEM 200, DOR 175, LVX 30, CEFT 250, TZB 87.5, TGC 20, AVI 30, FOF 1000
[6] = LQC: nominal 1 mg/L (levofloxacin, avibactam 0.5; fosfomycin 10)
[7] = MQC: nominal mg/L CAZ 75, FEP 100, PIP 150, ATM 150, MEM 100, DOR 87.5, LVX 15, CEFT 125, TZB 43.75, TGC 10, AVI 15, FOF 500

Structure (SMILES) | Mean accuracy (%), Table S15 ([1]; HQC (nominal as E15)) [%] | Mean accuracy (%), Table S15 ([1]; LQC (nominal as E13)) [%] | Mean accuracy (%), Table S15 ([1]; MQC (nominal as E14)) [%] | Mean accuracy (%), Table S17 ([1]; HQC (nominal as E15)) [%] | Mean accuracy (%), Table S17 ([1]; LQC (nominal as E13)) [%] | Mean accuracy (%), Table S17 ([1]; MQC (nominal as E14)) [%] | Mean accuracy (%), Table S16 ([1]; HQC (nominal as E15)) [%] | Mean accuracy (%), Table S16 ([1]; LQC (nominal as E13)) [%] | Mean accuracy (%), Table S16 ([1]; MQC (nominal as E14)) [%] | Mean accuracy (%), Table S18 ([1]; HQC (nominal as E15)) [%] | Mean accuracy (%), Table S18 ([1]; LQC (nominal as E13)) [%] | Mean accuracy (%), Table S18 ([1]; MQC (nominal as E14)) [%] | Mean accuracy (%), Table S11 ([1]; HQC (nominal as E15)) [%] | Mean accuracy (%), Table S11 ([1]; LQC (nominal as E13)) [%] | Mean accuracy (%), Table S11 ([1]; MQC (nominal as E14)) [%] | Mean accuracy (%), Table S13 ([1]; HQC (nominal as E15)) [%] | Mean accuracy (%), Table S13 ([1]; LQC (nominal as E13)) [%] | Mean accuracy (%), Table S13 ([1]; MQC (nominal as E14)) [%] | Mean accuracy (%), Table S12 ([1]; HQC (nominal as E15)) [%] | Mean accuracy (%), Table S12 ([1]; LQC (nominal as E13)) [%] | also measured
C[C@H]1[C@H](NC(=O)/C(=N\OC(C)(C)C(=O)O)c2csc(N)n2)C(=O)N1S(=O)(=O)O [Aztreonam, aztreonam] | 102.6 | 102.2 | 92.5 | 100.2 | 101.3 | 95.1 | 92.5 | 66.5 | 91.8 | 98.4 | 109.7 | 96.0 | 97.3 | 103.1 | 90.2 | 97.2 | 87.6 | 94.5 | 96.1 | 106.4 | Stability verdict (within ±15% of nominal) ([1]; CAMHB samples stored at −30 °C, 4 weeks): instability; Mean accuracy (%), Table S12 ([1]; MQC (nominal as E14)): 96.2%; Mean accuracy (%), Table S14 ([1]; HQC (nominal as E15)): 97.8%; Mean accuracy (%), Table S14 ([1]; LQC (nominal as E13)): 104.2%; Mean accuracy (%), Table S14 ([1]; MQC (nominal as E14)): 101.4%; Mean accuracy (%), Table S8 ([2]; HQC (nominal as E15)): 99.3%; Mean accuracy (%), Table S8 ([2]; LQC (nominal as E13)): 109.7%; Mean accuracy (%), Table S8 ([2]; MQC (nominal as E14)): 107.5%; Mean accuracy (%), Table S10 ([2]; HQC (nominal as E15)): 104.4%; Mean accuracy (%), Table S10 ([2]; LQC (nominal as E13)): 103.7%; Mean accuracy (%), Table S10 ([2]; MQC (nominal as E14)): 104.7%; Mean accuracy (%), Table S7 [2, 5]: 109.1%; Mean accuracy (%), Table S7 [2, 6]: 100.8%; Mean accuracy (%), Table S7 [2, 7]: 101.2%; Mean accuracy (%), Table S9 ([2]; HQC (nominal as E15)): 107.9%; Mean accuracy (%), Table S9 ([2]; LQC (nominal as E13)): 105.8%; Mean accuracy (%), Table S9 ([2]; MQC (nominal as E14)): 102.4%; Mean total plasma concentration (range) ([3]; Patient 002, intermittent hemodialysis, aztreonam 2 g every 12 h as a 2-h infusion): 8.8 to 86.2 mg/L; 32 Day Stability (%) [4]: 99.75%
C[C@]1(Cn2ccnn2)[C@H](C(=O)O)N2C(=O)C[C@H]2S1(=O)=O [Tazobactam, tazobactam] | 96.9 | 93.8 | 90.4 | 108.9 | 103.8 | 103.7 | 91.0 | 69.7 | 84.1 | 106.4 | 105.4 | 103.3 | 106.0 | 107.9 | 104.6 | 95.4 | 108.8 | 104.7 | 96.4 | 102.0 | Mean accuracy (%), Table S12 ([1]; MQC (nominal as E14)): 98.7%; Mean accuracy (%), Table S14 ([1]; HQC (nominal as E15)): 100.5%; Mean accuracy (%), Table S14 ([1]; LQC (nominal as E13)): 100.7%; Mean accuracy (%), Table S14 ([1]; MQC (nominal as E14)): 101.3%; Mean accuracy (%), Table S8 ([2]; HQC (nominal as E15)): 109.6%; Mean accuracy (%), Table S8 ([2]; LQC (nominal as E13)): 109.4%; Mean accuracy (%), Table S8 ([2]; MQC (nominal as E14)): 107.5%; Mean accuracy (%), Table S10 ([2]; HQC (nominal as E15)): 111.6%; Mean accuracy (%), Table S10 ([2]; LQC (nominal as E13)): 112.3%; Mean accuracy (%), Table S10 ([2]; MQC (nominal as E14)): 107.7%; Mean accuracy (%), Table S7 [2, 5]: 111.3%; Mean accuracy (%), Table S7 [2, 6]: 113.6%; Mean accuracy (%), Table S7 [2, 7]: 104.1%; Mean accuracy (%), Table S9 ([2]; HQC (nominal as E15)): 107.9%; Mean accuracy (%), Table S9 ([2]; LQC (nominal as E13)): 107.0%; Mean accuracy (%), Table S9 ([2]; MQC (nominal as E14)): 98.1%; Mean total plasma concentration (range) ([3]; Patient 001, piperacillin/tazobactam 4.5 g every 6 h as a 1-h infusion): 20.9 to 58.3 mg/L; 32 Day Stability (%) [4]: 93.04%
